Entries after “also recorded” stand apart in the source; their conditions may differ. Read-outs that look alike come from different tables or passages of the source.
Columns and labels:
[1] = biological target: T1, human phenylalanine hydroxylase (hPAH) (Homo sapiens, UniProt P00439); test: Limited proteolysis of hPAH by trypsin; settings: 100 μM in 1% DMSO, 25 °C, trypsin:hPAH 1:200; control 0.41 ± 0.03
T1 construct: Recombinant full-length wild-type (WT) hPAH was expressed in E. coli Top10 cells in fusion with a hexa-histidyl peptide; made in house; host or cells: E. coli Top10
T1 sequence (P00439 1-452): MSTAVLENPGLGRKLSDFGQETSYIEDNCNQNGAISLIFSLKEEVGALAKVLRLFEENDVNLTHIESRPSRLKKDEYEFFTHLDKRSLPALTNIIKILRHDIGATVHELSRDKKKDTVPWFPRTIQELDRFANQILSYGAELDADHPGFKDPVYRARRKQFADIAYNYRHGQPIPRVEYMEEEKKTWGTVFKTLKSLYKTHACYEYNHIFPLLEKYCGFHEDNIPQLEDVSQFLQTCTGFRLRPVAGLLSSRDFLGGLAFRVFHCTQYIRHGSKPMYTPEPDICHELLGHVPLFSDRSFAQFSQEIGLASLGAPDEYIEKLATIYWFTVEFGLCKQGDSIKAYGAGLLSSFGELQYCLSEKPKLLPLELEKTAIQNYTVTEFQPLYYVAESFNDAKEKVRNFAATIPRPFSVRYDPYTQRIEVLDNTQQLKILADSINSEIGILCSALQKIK
Description: Limited proteolysis of purified hPAH was performed as previously described, at 25 °C in SEC buffer and with a trypsin (Sigma-Aldrich) to hPAH ratio of 1:200 (by mass; final hPAH protein concentration 300 μg/mL), in the presence of 100 µM of 3HQ derivatives or 1% DMSO. Control assays were also performed in the presence of 100 μM and 1 mM L-Phe. At different time points (0 to 60 min), aliquots of the reaction were mixed with soybean trypsin inhibitor (Sigma-Aldrich) at a protease to inhibitor ratio of 1:1.5 (by mass) and analyzed by SDS-PAGE (10% polyacrylamide). The band corresponding to full-length hPAH was quantified by densitometric analysis using the Quantity One 1D software v4.6.3 (Bio-Rad). Data were fitted to a single exponential decay equation to obtain the decay constant of proteolysis (kP). Assays were performed in duplicate and data represent the mean ± SEM.

[2] = biological target: T1, human phenylalanine hydroxylase (hPAH); test: Steady-state kinetics of hPAH for L-Phe; type: biochemical; settings: 100 μM 3HQ; for h (Hill coefficient) / ki (substrate inhibition) / S0.5 (L-Phe concentration at half-maximal activity): 75 μM BH4, 25 °C; for S0.5 (L-Phe concentration at half-maximal activity): Km for compounds 3 and 11 (Michaelis–Menten fits); for Vmax: 75 μM BH4, L-Phe 25 μM to 2.5 mM, 25 °C; for Activation Ratio (L-Phe activation): 100 μM substrate; for kcat/S0.5 (catalytic efficiency): calculated with hPAH subunit MM 55 kDa
Description: The hPAH activity was measured essentially as previously described. Briefly, the enzymatic reaction was performed in a 200 μL final volume, containing 250 mM Na-HEPES, pH 7, 0.1 mg/mL catalase (Sigma-Aldrich; St. Louis, MO, USA), 5 μg (final concentration of 0.112 μM of tetramer) of recombinant hPAH tetramers and 100 μM (NH4)2Fe(II)SO4. Using 100 μM L-Phe and 100 μM of tested compound, three experimental conditions were used to study the compounds’ modulatory effect, namely: non activated (NA), 3HQ-activated (3HQ-A) and substrate/3HQ-activated (Phe/3HQ-A) (Supplementary Figure S3). The reaction was started by addition of 75 μM BH4 (Schircks Laboratories; Bauma, Switzerland) prepared in 5 mM ascorbic acid. In the NA assay, the L-Phe substrate and tested compounds were added together with 75 µM BH4 at the start of the hydroxylation reaction. In the 3HQ-A condition, hPAH was pre-incubated with the tested compound for 4 min at 25 °C and the reaction was started by the addition of BH4 together with L-Phe. In the Phe/3HQ-A condition, hPAH was pre-incubated simultaneously with L-Phe and the tested compound (4 min, 25 °C). Appropriate control reactions were performed where the compounds were omitted and 1% DMSO was used. Kinetic parameters were determined using variable concentrations of L-Phe (25 to 2500 μM) and fixed concentrations of BH4 (75 μM) and tested compound (100 μM). After a 1-min incubation, the reaction was stopped, and the amount of L-Tyr produced was quantified by HPLC as previously described. The specific hPAH enzymatic activity is expressed as nmol of L-Tyr produced during 1 min per mg of protein (nmol L-Tyr.min^−1.mg^−1). The steady-state kinetic data were analyzed by nonlinear regression analysis using GraphPad Prism (La Jolla, CA, USA). Data was fitted to the modified Hill equation accounting for cooperative substrate binding as well as substrate inhibition (Equation (1)), to the modified Michaelis–Menten equation which accounts for substrate inhibition (Equation (2)) and to the non-modified Michaelis–Menten equation:v = (Vmax + Vi ([S]^x/Ki^x))/(1 + (K^h/[S]^h) + ([S]^x/Ki^x))(1) v = (Vmax [S])/(Km + [S](1 + [S]/Ki))(2)

[3] = biological target: T1, human phenylalanine hydroxylase (hPAH); test: Time-dependent loss of hPAH activity at 42 °C; type: biochemical; settings: 100 μM compound; for remaining activity at 100 µM: read-out: hPAH residual activity, % of control sample; for protective effect on hPAH activity over time: up to 120 min at 42 °C
Description: The hPAH time-dependent loss of activity at a fixed temperature was assessed in a period of 120 min, in the absence and presence of compounds. In these assays, the enzymatic reaction was performed essentially as described above for the Phe/3HQ-A condition. Compounds (100 μM) were pre-incubated with the enzyme at 42 °C. After a 30, 45, 60, 90 and 120 min period, an aliquot of the protein (5 μg) was incubated, at 37 °C, with 100 μM L-Phe for 4 min, and the reaction proceeded as above at 37 °C [19].

[4] = biological target: T2, hPAH non-heme ferric center (Homo sapiens, UniProt P00439); test: Electron paramagnetic resonance spectroscopy; settings: ≈100 μM hPAH monomer, equimolar 3HQ, 4K
T2 construct: Recombinant full-length wild-type (WT) hPAH was expressed in E. coli Top10 cells in fusion with a hexa-histidyl peptide; made in house; host or cells: E. coli Top10
T2 sequence (P00439 1-452): T1 sequence (P00439 1-452)
Description: EPR spectra of hPAH (at ≈100 μM monomer) in the absence or presence of equimolar amounts of 3HQs were recorded at 4K in a Bruker EMX spectrometer (Billerica, MA, USA) equipped with an ESR-900 continuous flow helium cryostat from Oxford Instruments (Abingdon, Johnson, UK). Spectra were recorded for control samples containing 100 μM FeCl3 solutions incubated with equimolar amounts of 3HQs to evaluate direct binding of the compounds to free Fe^3+ in solution. Microwave frequency: 9.39 GHz; microwave power, 2 mW; modulation amplitude, 1 mT.

| SMILES | proteolytic rate (kP) [1] [min⁻¹] | h (Hill coefficient) [2] | ki (substrate inhibition) [2] [mM] | S0.5 (L-Phe concentration at half-maximal activity) [2] [µM] | Vmax [2] | Activation Ratio (L-Phe activation) [2] | kcat/S0.5 (catalytic efficiency) [2] [M⁻¹ s⁻¹] | remaining activity at 100 µM ([3]; 60 min at 42 °C) [%] | remaining activity at 100 µM ([3]; 90 min at 42 °C) [%] | remaining activity at 100 µM ([3]; 120 min at 42 °C) [%] | change of hPAH EPR spectrum [4] | effect on hPAH kinetic behaviour [2] | protective effect on hPAH activity over time [3] |
| --- | --- | --- | --- | --- | --- | --- | --- | --- | --- | --- | --- | --- | --- |
| COC(=O)CC[C@H](NC(=O)c1c(O)c(=O)[nH]c2ccc(OC(F)(F)F)cc12)C(=O)OC [Compound 9] | 0.38 ± 0.04 | 1.9 ± 0.8 | 23.3 ± 0.5 | 108 ± 34 | 3.94 ± 0.64 10^3 nmol Tyr.min^−1.mg^−1 | 1.4 | 33300 | 136 ± 7 | 121 ± 32 | 176 ± 32 | less rhombic EPR signals appeared |  |  |
| O=C(NCCc1ccccc1)c1c(O)c(=O)[nH]c2ccc(OC(F)(F)F)cc12 [Compound 8] | 0.30 ± 0.01 | 1.2 ± 0.3 | 7.2 ± 0.2 | 115 ± 9 | 4.38 ± 0.94 10^3 nmol Tyr.min^−1.mg^−1 | 1.7 | 35000 |  |  |  | less rhombic EPR signals appeared | weak competitive inhibitors | protective effect was not observed |
| N[C@@H](Cc1ccccc1)C(=O)O [L-Phe, L-phenylalanine, reference compound] | 0.15 ± 0.01 |  |  |  |  |  |  |  |  |  |  |  |  |
| CCOC(=O)[C@H](Cc1ccccc1)NC(=O)c1c(O)c(=O)[nH]c2ccc(OC(F)(F)F)cc12 [Compound 3] | 0.29 ± 0.04 |  |  | 206 ± 99 | 4.82 ± 0.64 10^3 nmol Tyr.min^−1.mg^−1 | 1.3 | 21700 |  |  |  | significant increase in the intensity of this main band at g = 4.25 | weak competitive inhibitors; also recorded: loss of cooperativity | protective effect was not observed |
| COC(=O)CNC(=O)c1c(O)c(=O)[nH]c2ccc(OC(F)(F)F)cc12 [Compound 11] | 0.41 ± 0.01 |  | 2.5 ± 0.3 | 386 ± 97 | 7.75 ± 1.23 ** 10^3 nmol Tyr.min^−1.mg^−1 | 1.5 |  |  | 117 ± 33 | 168 ± 64 | less rhombic EPR signals appeared | loss of cooperativity |  |
